According to PubChem BioAssay (NCI):
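Briefly, cells in 96-well plates were exposed to five compound concentrations for 48 h, and endpoints were estimated by linear interpolation. GI50 marks 50% less growth. At the TGI there is no net growth.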

Assays:
Test in all cases: growth of human tumour cells (NCI), 48 h
[1] = system: U251 CNS
[2] = system: SK-MEL-2 melanoma
[3] = system: UACC-257 melanoma
[4] = system: T-47D breast
[5] = system: SK-MEL-5 melanoma
[6] = system: CCRF-CEM leukemia
[7] = system: SW-620 colon
[8] = system: HCT-116 colon
[9] = system: MCF7 breast
[10] = system: NCI-H460 lung
[11] = system: PC-3 prostate
[12] = system: RPMI-8226 leukemia
[13] = system: A549 NSCLC
[14] = system: HL-60(TB) leukemia
[15] = system: MDA-MB-435
[16] = system: CAKI-1 renal
[17] = system: COLO 205 colon
[18] = system: SK-MEL-28 melanoma
[19] = system: SR leukemia
[20] = system: HCC-2998 colon
[21] = system: NCI-H522 lung
[22] = system: SNB-19 CNS
[23] = system: SNB-75 CNS
[24] = system: HOP-62 NSCLC
[25] = system: OVCAR-8 ovarian
[26] = system: UACC-62 melanoma
[27] = system: HT29 colon
[28] = system: SF-539 CNS
[29] = system: KM12 colon
[30] = system: SF-295 CNS
[31] = system: HOP-92 NSCLC
[32] = system: NCI/ADR-RES ovarian
[33] = system: RXF 393 renal
[34] = system: MALME-3M melanoma
[35] = system: DU-145 prostate
[36] = system: SN12C renal
[37] = system: SF-268 CNS
[38] = system: IGROV1 ovarian
[39] = system: MOLT-4 leukemia
[40] = system: ACHN renal
[41] = system: OVCAR-4 ovarian
[42] = system: K-562 leukemia
[43] = system: OVCAR-3 ovarian
[44] = system: BT-549 breast
[45] = system: HS 578T breast
[46] = system: NCI-H23 lung
[47] = system: HCT-15 colon
[48] = system: SK-OV-3 ovarian
[49] = system: OVCAR-5 ovarian
[50] = system: UO-31 renal
[51] = system: TK-10 renal
[52] = system: MDA-MB-231 breast
[53] = system: 786-0 renal
[54] = system: NCI-H226 lung
[55] = system: LOX IMVI melanoma
[56] = system: M14 melanoma
[57] = system: A498 renal
[58] = system: EKVX NSCLC

Cc1cc(NC(=O)C2c3ccccc3C(=O)N(CC(C)C)C2c2cccs2)no1 (stereo not given)
GI50 [1]: 84.2 µM
TGI [1]: > 100 µM
GI50 [2]: > 100000 nM
TGI [2]: > 100 µM
GI50 [3]: > 100000 nM
TGI [3]: > 100000 nM
GI50 [4]: > 100 µM
TGI [4]: > 100000 nM
GI50 [5]: 73.2 µM
TGI [5]: > 100000 nM
GI50 [6]: 82.5 µM
TGI [6]: > 100 µM
GI50 [7]: > 100 µM
TGI [7]: > 100 µM
GI50 [8]: 49.1 µM
TGI [8]: > 100 µM
GI50 [9]: 60 µM
TGI [9]: > 100 µM
GI50 [10]: > 100 µM
TGI [10]: > 100 µM
GI50 [11]: 34.8 µM
TGI [11]: > 100 µM
GI50 [12]: 45.5 µM
TGI [12]: > 100 µM
GI50 [13]: > 100 µM
TGI [13]: > 100 µM
GI50 [14]: 39 µM
TGI [14]: > 100 µM
GI50 [15]: 33.7 µM
TGI [15]: > 100 µM
GI50 [16]: 25.6 µM
TGI [16]: > 100 µM
GI50 [17]: > 100 µM
TGI [17]: > 100 µM
GI50 [18]: > 100000 nM
TGI [18]: > 100 µM
GI50 [19]: 35.5 µM
TGI [19]: > 100000 nM
GI50 [20]: > 100000 nM
TGI [20]: > 100 µM
GI50 [21]: 52.2 µM
TGI [21]: > 100000 nM
GI50 [22]: 46.2 µM
TGI [22]: > 100 µM
GI50 [23]: 10.5 µM
TGI [23]: > 100 µM
GI50 [24]: > 100 µM
TGI [24]: > 100 µM
GI50 [25]: > 100 µM
TGI [25]: > 100 µM
GI50 [26]: 86 µM
TGI [26]: > 100000 nM
GI50 [27]: 69.5 µM
TGI [27]: > 100 µM
GI50 [28]: > 100 µM
TGI [28]: > 100000 nM
GI50 [29]: 48.4 µM
TGI [29]: > 100 µM
GI50 [30]: 29 µM
TGI [30]: > 100000 nM
GI50 [31]: 18.7 µM
TGI [31]: 78.2 µM
GI50 [32]: 90.2 µM
TGI [32]: > 100 µM
GI50 [33]: 27.5 µM
TGI [33]: > 100000 nM
GI50 [34]: > 100000 nM
TGI [34]: > 100 µM
GI50 [35]: > 100 µM
TGI [35]: > 100 µM
GI50 [36]: > 100 µM
TGI [36]: > 100 µM
GI50 [37]: > 100 µM
TGI [37]: > 100 µM
GI50 [38]: > 100000 nM
TGI [38]: > 100 µM
GI50 [39]: 43.1 µM
TGI [39]: > 100 µM
GI50 [40]: 55.2 µM
TGI [40]: > 100000 nM
GI50 [41]: 31.3 µM
TGI [41]: > 100 µM
GI50 [42]: 50.9 µM
TGI [42]: > 100 µM
GI50 [43]: 90.1 µM
TGI [43]: > 100 µM
GI50 [44]: > 100000 nM
TGI [44]: > 100 µM
GI50 [45]: 86.7 µM
TGI [45]: > 100 µM
GI50 [46]: > 100 µM
TGI [46]: > 100000 nM
GI50 [47]: 70.6 µM
TGI [47]: > 100 µM
GI50 [48]: > 100 µM
TGI [48]: > 100000 nM
GI50 [49]: > 100000 nM
TGI [49]: > 100 µM
GI50 [50]: 30.2 µM
TGI [50]: > 100 µM
GI50 [51]: > 100000 nM
TGI [51]: > 100 µM
GI50 [52]: 21.2 µM
TGI [52]: 93.4 µM
GI50 [53]: > 100 µM
TGI [53]: > 100 µM
GI50 [54]: > 100 µM
TGI [54]: > 100 µM
GI50 [55]: > 100 µM
TGI [55]: > 100000 nM

O=C1c2cc3c(cc2-c2c1c1cc(Cl)c(Cl)cc1c(=O)n2CCCn1ccnc1)OCO3
GI50 [1]: < 0.01 µM
TGI [1]: 11.6 µM
GI50 [2]: 222 nM
TGI [2]: 26.7 µM
GI50 [3]: 12.2 nM
TGI [3]: 1310 nM
GI50 [4]: < 0.01 µM
TGI [4]: 63.6 nM
GI50 [5]: < 0.01 µM
TGI [5]: 40.7 nM
GI50 [6]: < 0.01 µM
TGI [6]: > 100 µM
GI50 [7]: < 0.01 µM
TGI [7]: > 100 µM
GI50 [56]: < 10 nM
TGI [56]: 11.8 µM
GI50 [8]: < 0.01 µM
TGI [8]: 17.6 µM
GI50 [9]: < 0.01 µM
TGI [9]: 12.3 µM
GI50 [10]: < 0.01 µM
TGI [10]: > 100 µM
GI50 [11]: 0.0171 µM
TGI [11]: > 100 µM
GI50 [12]: < 0.01 µM
TGI [12]: 10.4 µM
GI50 [13]: < 0.01 µM
TGI [13]: > 100 µM
GI50 [14]: < 0.01 µM
TGI [14]: 15.9 µM
GI50 [15]: 0.0162 µM
TGI [15]: > 100 µM
GI50 [16]: < 0.01 µM
TGI [16]: > 100 µM
GI50 [17]: < 0.01 µM
TGI [17]: > 100 µM
GI50 [18]: 66.5 nM
TGI [18]: > 100 µM
GI50 [19]: < 0.01 µM
TGI [19]: 1670 nM
GI50 [20]: 53.8 nM
TGI [20]: > 100 µM
GI50 [21]: < 0.01 µM
TGI [21]: 835 nM
GI50 [22]: < 0.01 µM
TGI [22]: > 100 µM
GI50 [23]: < 0.01 µM
TGI [23]: 17.1 µM
GI50 [24]: < 0.01 µM
GI50 [25]: < 0.01 µM
TGI [25]: > 100 µM
GI50 [26]: < 0.01 µM
TGI [26]: 11.7 nM
GI50 [27]: < 0.01 µM
TGI [27]: > 100 µM
GI50 [57]: 10.7 nM
TGI [57]: 63.8 nM
GI50 [28]: < 0.01 µM
TGI [28]: 20.6 nM
GI50 [29]: 0.0244 µM
TGI [29]: 37.1 µM
GI50 [30]: < 0.01 µM
TGI [30]: 13.1 nM
GI50 [32]: < 0.01 µM
TGI [32]: 11.6 µM
GI50 [33]: < 0.01 µM
TGI [33]: 56.6 nM
GI50 [34]: 23.2 nM
TGI [34]: 17 µM
GI50 [35]: < 0.01 µM
TGI [35]: 59.9 µM
GI50 [37]: < 0.01 µM
TGI [37]: > 100 µM
GI50 [38]: 29.5 nM
TGI [38]: > 100 µM
GI50 [58]: 55.3 nM
TGI [58]: > 100 µM
GI50 [39]: < 0.01 µM
TGI [39]: 10.9 µM
GI50 [40]: < 0.01 µM
TGI [40]: 1090 nM
GI50 [41]: 0.0495 µM
TGI [41]: > 100 µM
GI50 [42]: 0.0111 µM
TGI [42]: 20.8 µM
GI50 [43]: 0.0425 µM
TGI [43]: 18.8 µM
GI50 [44]: 11.4 nM
TGI [44]: 28.1 µM
GI50 [45]: 17.1 µM
TGI [45]: > 100 µM
GI50 [46]: < 0.01 µM
TGI [46]: 232 nM
GI50 [47]: 0.0257 µM
TGI [47]: > 100 µM
GI50 [48]: < 0.01 µM
TGI [48]: 30.5 nM
GI50 [49]: 23.9 nM
TGI [49]: > 100 µM
GI50 [50]: < 0.01 µM
TGI [50]: > 100 µM
GI50 [51]: 85 nM
TGI [51]: > 100 µM
GI50 [52]: 0.0996 µM
TGI [52]: > 100 µM
GI50 [53]: < 0.01 µM
TGI [53]: 11.4 µM
GI50 [54]: < 0.01 µM
GI50 [55]: < 0.01 µM
TGI [55]: 18.3 nM
